Measurements: ChEMBL document CHEMBL5370691, “Novel Pyrido[3,2-d]pyrimidines as HPK1 Inhibitors for Treating Cancer and Inflammatory and Autoimmune Diseases” (ACS Med Chem Lett, 2023)

Molecular target: Mitogen-activated protein kinase kinase kinase kinase 1 (Homo sapiens, UniProt Q92918)
Assay: Inhibition of N-terminal GST-tagged full-length human HPK1 expressed in baculovirus infected Sf21 cells using MBP as substrate preincubated for 15 mins followed by substrate addition and measured after 120 mins in presence of ATP by ADP-glo assay

Sequence of Mitogen-activated protein kinase kinase kinase kinase 1 (Q92918 whole entry): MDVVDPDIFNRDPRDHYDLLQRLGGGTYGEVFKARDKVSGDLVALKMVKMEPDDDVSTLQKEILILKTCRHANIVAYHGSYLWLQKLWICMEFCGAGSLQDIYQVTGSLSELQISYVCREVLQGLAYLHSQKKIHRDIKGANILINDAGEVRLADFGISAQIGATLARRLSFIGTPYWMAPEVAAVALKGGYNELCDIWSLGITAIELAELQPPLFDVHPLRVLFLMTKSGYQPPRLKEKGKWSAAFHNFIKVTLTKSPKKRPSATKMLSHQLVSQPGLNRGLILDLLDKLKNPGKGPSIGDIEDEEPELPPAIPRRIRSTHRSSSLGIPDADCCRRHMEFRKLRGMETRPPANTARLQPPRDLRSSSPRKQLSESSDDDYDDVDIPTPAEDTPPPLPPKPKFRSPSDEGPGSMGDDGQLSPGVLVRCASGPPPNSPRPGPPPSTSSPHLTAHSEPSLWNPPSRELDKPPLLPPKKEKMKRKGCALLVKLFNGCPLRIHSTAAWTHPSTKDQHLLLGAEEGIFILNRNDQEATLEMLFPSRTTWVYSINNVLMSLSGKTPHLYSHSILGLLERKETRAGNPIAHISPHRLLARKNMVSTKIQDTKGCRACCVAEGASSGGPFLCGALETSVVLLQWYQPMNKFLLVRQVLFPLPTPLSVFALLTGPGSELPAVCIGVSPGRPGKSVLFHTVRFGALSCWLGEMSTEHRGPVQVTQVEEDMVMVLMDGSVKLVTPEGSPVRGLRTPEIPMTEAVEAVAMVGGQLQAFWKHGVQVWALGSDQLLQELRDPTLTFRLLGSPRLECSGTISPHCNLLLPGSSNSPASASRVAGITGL

IC50, < 100 nM:
CN1CCN(c2ccc(-c3cc(C(N)=O)c4ncnc(N[C@H]5CCCNC5)c4n3)cn2)CC1
NC(=O)c1cc(-c2ccc(F)cc2)nc2c(N[C@H]3CCCNC3)ncnc12
CS(=O)(=O)Cc1ccc(-c2cc(C(N)=O)c3ncnc(N[C@H]4CCCNC4)c3n2)cc1
NC(=O)c1cc(-c2ccc(C3(O)CC3)cc2)nc2c(N[C@H]3CCCNC3)ncnc12
COCCOc1ccc(-c2cc(C(N)=O)c3ncnc(N[C@H]4CCCNC4)c3n2)c(C#N)c1
COc1ccccc1-c1cc(C(N)=O)c2ncnc(N[C@H]3CCCNC3)c2n1
